In one assay the target is Adenosine receptor A2a (Homo sapiens, UniProt P29274).
For assay [1], the target named is T1, Alpha-2C adrenergic receptor (Homo sapiens, UniProt P18825).
T1 sequence (P18825 whole entry): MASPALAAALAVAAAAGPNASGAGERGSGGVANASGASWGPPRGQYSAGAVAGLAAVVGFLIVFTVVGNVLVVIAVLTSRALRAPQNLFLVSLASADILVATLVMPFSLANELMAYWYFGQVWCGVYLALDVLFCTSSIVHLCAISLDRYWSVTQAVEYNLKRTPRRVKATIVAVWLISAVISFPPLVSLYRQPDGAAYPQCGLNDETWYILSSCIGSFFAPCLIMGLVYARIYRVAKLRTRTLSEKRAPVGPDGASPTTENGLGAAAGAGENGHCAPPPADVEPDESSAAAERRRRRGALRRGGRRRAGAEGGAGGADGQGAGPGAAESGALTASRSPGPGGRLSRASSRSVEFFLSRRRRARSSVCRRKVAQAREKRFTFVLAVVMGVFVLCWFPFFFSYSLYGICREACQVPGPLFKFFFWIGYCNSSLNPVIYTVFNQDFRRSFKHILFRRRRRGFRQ
It counts as functional.

The next assay addresses Vasopressin V2 receptor (Homo sapiens, UniProt P30518).
The target of assay [2] is T2, Cholecystokinin receptor type A (Homo sapiens, UniProt P32238).
T2 sequence (P32238 whole entry): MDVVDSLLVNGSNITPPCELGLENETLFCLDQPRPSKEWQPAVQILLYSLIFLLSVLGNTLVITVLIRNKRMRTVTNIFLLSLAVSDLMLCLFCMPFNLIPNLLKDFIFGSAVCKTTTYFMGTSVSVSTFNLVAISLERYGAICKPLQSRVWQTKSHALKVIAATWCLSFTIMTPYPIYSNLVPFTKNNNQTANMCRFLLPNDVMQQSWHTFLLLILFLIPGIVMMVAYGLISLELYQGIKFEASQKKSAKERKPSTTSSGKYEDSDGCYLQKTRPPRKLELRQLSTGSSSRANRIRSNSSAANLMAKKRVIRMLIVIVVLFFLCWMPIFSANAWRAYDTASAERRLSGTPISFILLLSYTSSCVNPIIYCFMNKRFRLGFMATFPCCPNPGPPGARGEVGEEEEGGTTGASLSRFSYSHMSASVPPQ

For assay [3], the target named is T3, Muscarinic acetylcholine receptor M1 (Homo sapiens, UniProt P11229).
T3 sequence (P11229 whole entry): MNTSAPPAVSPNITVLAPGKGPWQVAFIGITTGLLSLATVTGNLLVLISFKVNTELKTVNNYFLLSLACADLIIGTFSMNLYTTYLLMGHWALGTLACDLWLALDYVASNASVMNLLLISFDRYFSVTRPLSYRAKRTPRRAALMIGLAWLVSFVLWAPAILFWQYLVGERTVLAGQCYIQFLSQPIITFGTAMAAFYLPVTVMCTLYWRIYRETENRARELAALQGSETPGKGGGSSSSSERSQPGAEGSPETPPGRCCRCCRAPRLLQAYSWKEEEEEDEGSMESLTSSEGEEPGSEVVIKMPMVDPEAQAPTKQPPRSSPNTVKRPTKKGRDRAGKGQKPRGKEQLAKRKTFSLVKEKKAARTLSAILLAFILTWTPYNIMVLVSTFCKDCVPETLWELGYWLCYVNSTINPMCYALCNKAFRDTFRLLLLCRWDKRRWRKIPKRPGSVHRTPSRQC
In kind it is functional, cell-based.

Assay [4] concerns the target Neuronal acetylcholine receptor subunit alpha-4 (Homo sapiens, UniProt P43681).
The next assay deals with T4, Estrogen receptor (Homo sapiens, UniProt P03372).
T4 sequence (P03372 whole entry): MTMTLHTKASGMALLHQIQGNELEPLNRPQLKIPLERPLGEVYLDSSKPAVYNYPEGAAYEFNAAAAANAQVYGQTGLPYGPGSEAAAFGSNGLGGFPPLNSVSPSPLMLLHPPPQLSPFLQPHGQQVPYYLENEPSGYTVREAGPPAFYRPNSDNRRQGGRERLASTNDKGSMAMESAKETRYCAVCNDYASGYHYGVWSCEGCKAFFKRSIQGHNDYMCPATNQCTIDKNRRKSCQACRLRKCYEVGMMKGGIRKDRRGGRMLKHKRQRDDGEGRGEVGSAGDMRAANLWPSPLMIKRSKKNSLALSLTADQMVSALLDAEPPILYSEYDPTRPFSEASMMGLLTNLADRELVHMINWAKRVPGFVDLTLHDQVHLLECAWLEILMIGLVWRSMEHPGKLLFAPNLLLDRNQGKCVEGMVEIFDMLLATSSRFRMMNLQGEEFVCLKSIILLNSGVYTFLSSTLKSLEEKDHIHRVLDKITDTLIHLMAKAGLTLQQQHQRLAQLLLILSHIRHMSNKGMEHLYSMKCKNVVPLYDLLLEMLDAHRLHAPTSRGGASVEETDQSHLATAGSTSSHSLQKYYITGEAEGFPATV

The target in assay [5] is Growth hormone secretagogue receptor type 1 (Homo sapiens, UniProt Q92847).
Growth hormone secretagogue receptor type 1, sequence (Q92847 whole entry): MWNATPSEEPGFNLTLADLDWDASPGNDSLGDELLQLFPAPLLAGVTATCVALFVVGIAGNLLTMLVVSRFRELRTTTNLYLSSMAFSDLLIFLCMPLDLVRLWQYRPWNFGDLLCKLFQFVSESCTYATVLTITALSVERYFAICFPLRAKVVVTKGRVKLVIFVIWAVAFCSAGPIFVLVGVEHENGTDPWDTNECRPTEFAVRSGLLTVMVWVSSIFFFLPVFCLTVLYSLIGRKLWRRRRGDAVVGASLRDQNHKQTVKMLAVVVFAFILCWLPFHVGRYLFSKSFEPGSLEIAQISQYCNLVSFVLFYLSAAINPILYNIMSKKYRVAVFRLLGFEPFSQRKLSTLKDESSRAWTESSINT
Assay [6] concerns the target Vascular endothelial growth factor receptor 2 (Homo sapiens, UniProt P35968). In kind it is functional.
The target in the next assay is Cannabinoid receptor 1 (Homo sapiens, UniProt P21554). In kind it is functional, cell-based.
Cannabinoid receptor 1, sequence (P21554 whole entry): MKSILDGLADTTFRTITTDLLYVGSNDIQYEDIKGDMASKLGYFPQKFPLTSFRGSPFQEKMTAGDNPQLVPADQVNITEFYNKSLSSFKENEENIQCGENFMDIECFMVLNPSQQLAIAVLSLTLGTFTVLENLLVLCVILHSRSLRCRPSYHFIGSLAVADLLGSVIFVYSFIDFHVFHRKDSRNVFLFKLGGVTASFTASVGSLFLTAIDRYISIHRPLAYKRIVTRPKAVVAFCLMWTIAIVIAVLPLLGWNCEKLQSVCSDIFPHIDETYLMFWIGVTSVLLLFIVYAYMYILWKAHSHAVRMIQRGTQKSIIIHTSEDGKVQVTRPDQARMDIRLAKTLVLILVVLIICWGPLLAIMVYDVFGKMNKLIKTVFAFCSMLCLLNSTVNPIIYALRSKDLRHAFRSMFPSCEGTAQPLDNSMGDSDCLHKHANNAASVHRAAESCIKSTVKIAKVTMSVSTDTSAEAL
Another assay addresses T5, Endothelin-1 receptor (Homo sapiens, UniProt P25101).
T5 sequence (P25101 whole entry): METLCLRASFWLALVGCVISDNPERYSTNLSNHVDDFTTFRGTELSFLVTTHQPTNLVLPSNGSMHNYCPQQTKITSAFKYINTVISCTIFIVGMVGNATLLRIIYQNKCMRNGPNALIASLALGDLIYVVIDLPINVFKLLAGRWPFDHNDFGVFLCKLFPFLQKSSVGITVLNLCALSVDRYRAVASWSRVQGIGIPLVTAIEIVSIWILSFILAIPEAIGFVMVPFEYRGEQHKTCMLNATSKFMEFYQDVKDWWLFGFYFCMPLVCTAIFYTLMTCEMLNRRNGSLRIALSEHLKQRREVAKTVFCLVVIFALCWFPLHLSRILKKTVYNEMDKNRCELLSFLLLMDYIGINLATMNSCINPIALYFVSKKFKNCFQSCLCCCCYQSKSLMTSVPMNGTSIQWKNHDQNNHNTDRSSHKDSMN

As usually defined, the AC50 is the concentration giving half of the maximal activity seen. Low values mean activity at low concentration, high ones activity only at high concentration.
Also: assay procedure not described here.

Vascular endothelial growth factor receptor 2, sequence (P35968 whole entry): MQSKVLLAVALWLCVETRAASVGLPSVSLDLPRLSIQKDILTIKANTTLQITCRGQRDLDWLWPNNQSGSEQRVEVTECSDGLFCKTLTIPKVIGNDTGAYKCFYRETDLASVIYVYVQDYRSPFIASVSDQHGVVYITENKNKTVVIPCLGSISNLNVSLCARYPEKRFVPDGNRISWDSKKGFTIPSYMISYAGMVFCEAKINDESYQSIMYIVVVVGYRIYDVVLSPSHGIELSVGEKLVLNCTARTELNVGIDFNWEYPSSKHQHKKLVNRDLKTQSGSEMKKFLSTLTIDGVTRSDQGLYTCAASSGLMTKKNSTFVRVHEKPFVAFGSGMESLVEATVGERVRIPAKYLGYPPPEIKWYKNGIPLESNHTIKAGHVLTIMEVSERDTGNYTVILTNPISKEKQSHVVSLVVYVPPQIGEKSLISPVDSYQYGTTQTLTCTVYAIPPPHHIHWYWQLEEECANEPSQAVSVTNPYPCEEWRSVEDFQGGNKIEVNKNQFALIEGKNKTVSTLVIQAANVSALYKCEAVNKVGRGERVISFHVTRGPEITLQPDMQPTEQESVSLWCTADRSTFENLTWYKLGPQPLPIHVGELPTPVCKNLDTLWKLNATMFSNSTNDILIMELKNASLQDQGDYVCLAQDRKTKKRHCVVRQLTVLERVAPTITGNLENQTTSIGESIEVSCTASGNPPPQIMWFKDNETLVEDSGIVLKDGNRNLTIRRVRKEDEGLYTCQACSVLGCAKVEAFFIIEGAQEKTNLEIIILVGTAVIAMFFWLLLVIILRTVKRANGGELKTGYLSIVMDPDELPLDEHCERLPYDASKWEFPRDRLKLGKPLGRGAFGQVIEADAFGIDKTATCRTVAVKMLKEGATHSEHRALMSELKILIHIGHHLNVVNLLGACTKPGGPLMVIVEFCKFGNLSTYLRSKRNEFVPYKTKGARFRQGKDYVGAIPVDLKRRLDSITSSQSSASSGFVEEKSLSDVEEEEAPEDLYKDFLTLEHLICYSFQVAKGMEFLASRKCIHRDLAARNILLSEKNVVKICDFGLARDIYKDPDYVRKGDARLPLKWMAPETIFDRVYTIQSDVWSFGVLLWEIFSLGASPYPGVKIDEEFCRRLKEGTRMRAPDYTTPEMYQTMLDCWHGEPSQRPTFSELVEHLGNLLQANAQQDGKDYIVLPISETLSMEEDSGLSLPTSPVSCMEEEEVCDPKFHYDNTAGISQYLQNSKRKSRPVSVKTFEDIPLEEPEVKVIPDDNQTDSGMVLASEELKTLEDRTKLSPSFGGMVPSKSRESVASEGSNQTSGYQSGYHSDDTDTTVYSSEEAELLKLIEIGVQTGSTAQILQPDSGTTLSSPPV
Adenosine receptor A2a, sequence (P29274 whole entry): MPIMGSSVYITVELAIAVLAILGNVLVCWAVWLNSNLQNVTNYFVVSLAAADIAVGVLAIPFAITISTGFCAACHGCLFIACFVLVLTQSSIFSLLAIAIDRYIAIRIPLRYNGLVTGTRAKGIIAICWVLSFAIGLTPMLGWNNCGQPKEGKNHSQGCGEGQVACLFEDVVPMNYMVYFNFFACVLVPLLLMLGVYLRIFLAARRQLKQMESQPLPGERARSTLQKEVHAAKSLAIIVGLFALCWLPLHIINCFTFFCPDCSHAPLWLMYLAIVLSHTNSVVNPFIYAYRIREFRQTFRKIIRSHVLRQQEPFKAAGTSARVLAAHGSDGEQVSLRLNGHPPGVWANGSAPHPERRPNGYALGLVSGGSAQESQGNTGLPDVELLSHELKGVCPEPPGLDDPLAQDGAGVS
Neuronal acetylcholine receptor subunit alpha-4, sequence (P43681 whole entry): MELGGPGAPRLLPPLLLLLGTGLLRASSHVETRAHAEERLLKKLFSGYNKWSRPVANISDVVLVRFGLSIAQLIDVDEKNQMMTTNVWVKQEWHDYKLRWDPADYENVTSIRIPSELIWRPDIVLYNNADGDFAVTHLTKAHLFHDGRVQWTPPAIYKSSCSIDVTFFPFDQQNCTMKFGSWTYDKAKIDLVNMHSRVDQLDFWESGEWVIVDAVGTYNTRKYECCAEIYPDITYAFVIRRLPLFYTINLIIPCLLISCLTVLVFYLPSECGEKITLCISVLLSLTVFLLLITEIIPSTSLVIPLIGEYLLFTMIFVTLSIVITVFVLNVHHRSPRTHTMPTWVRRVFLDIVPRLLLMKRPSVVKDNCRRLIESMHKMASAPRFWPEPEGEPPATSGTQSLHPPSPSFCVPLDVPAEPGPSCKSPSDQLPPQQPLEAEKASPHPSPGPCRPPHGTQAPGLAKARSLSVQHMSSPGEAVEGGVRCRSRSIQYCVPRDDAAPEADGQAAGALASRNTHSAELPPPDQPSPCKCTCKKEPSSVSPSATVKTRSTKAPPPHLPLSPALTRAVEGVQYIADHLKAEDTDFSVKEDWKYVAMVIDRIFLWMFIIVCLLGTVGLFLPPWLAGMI
Vasopressin V2 receptor, sequence (P30518 whole entry): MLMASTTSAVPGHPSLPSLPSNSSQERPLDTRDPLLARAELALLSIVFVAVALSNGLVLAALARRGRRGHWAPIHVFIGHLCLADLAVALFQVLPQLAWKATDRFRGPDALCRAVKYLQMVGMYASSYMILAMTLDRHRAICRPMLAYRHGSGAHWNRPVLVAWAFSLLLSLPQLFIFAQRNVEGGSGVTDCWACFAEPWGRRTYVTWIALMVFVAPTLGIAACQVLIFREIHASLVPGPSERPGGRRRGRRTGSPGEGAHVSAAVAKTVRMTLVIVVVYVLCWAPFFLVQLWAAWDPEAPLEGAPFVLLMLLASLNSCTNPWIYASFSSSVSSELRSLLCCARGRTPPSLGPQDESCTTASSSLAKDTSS

As for `CC(=O)/N=c1/sc(S(N)(=O)=O)nn1C` [METHAZOLAMIDE], the concentration at half-maximal activity (AC50) on Adenosine receptor A2a was greater than 10 µM; in assay [1], greater than 10 µM; at Vasopressin V2 receptor it was greater than 10 µM; in [2] it was greater than 10 µM; in assay [3], greater than 30 µM; in assay [4], greater than 10 µM. For the same molecule, the values for the AC50 (on Estrogen receptor; in assay [5]; in [6]) were greater than 30 µM, greater than 10 µM and greater than 30 µM, respectively.

Consider `CC(=O)Oc1ccccc1C(=O)Nc1ncc([N+](=O)[O-])s1` [NITAZOXANIDE], for which the AC50 on Adenosine receptor A2a is 8.8 µM; at Vasopressin V2 receptor it was 14 µM; in assay [2] it was 6.6 µM; in assay [3] it was 4.33 µM; in assay [4], 8.8 µM; at Cannabinoid receptor 1, greater than 30 µM. In addition, the AC50 on Endothelin-1 receptor was 12 µM; at Estrogen receptor it was greater than 30 µM; in assay [5], 15 µM; in assay [6] it was greater than 30 µM.

These data come from ChEMBL document CHEMBL5291721, “A preclinical secondary pharmacology resource illuminates target-adverse drug reaction associations of marketed drugs” (Nat Commun, 2023).
